Measurements as given in patent publication US20250082763A1, “COMBINATION DRUG FOR TREATING TRIPLE-NEGATIVE BREAST CANCER” (HINOVA PHARMACEUTICALS INC., priority 2022, published 2025).
Like-named read-outs stand apart in the source and are kept apart here. Values belong to the molecule of their own block, whether it stands above or below them.

Experiments:
Format in all cases: cell-based
MDA-MB-453 cells [1] = assay: Inhibition of proliferation of MDA-MB-453 cells (CCK-8 or CTG, 7-10 days); conditions: for IC50: co-incubation 7-10 days, CCK-8 or CTG, read-out: IC50 values against MDA-MB-453 cells
Experimental: Triple negative breast cancer MDA-MB-453 cells in logarithmic growth stage were inoculated into a 96-well plate at a concentration of 4×10^3 cells/well, and then incubated in an incubator at 37° C., 5% CO2, and saturated humidity for 24 h or 48 h. To the negative control well, was added RPMI 1640 cell medium containing 10% fetal bovine serum in the same volume as the drug. After cultured for 24 h or 48 h, to the 96-well plate, were added AR PROTACs compounds 162, 177, 230, 259, 279, 281, 282, 325, 357, 400, ARV-110, ARV-766 and AR inhibitor HC-1119, respectively. The concentrations of compounds 177, 230, 259, 279, 281, 282, 325, 357, 400, ARV-110, and ARV-766 are 0 μM, 0.002 μM, 0.005 μM, 0.014 μM, 0.041 μM, 0.123 μM, 0.370 μM, 1.111 μM, 3.333 μM or 10 μM; while the concentrations of HC-1119 are 0 μM, 1.23 μM, 3.70 μM, 11.11 μM, 33.33 μM or 100 μM.
(§1) After addition of the drugs and co-incubation for 7-10 days, 10 μL of CCK-8 was added to each well, and then the plate was further cultured for 2 h. The absorbance value (OD) of each well was measured using a microplate reader at a wavelength of 450 nm. The survival rate was calculated using Prism software, the relative survival rate=(OD value of drug well/OD value of control well)×100%. Alternatively, 100 μL of medium was removed from each well, and then 50 μL of CTG was added. The plate was shaken in the dark for 2 min, allowed to stand for 10 min, and then measured using a microplate reader in Luminescence mode. Prism software was used to calculate the survival rate, the relative survival rate=(the RLU value of drug well/the RLU value of control well)×100%.

[2] = test system: AR+ TNBC cells (MDA-MB-453, SUM159PT and MFM-223) and AR- TNBC (MDA-MB-468 and HCC1937); assay: Antiproliferation in AR positive and negative TNBC cells (summary over the cell line panel); conditions: MDA-MB-453, SUM159PT, MFM-223, MDA-MB-468, HCC1937
Experimental: (§2) For MDA-MB-453, MFM-223, SUM159PT, MDA-MB-468, and HCC1937, 4,000, 3,000, 1,000, 3,000, and 3,000 cells were plated per well in 96-well microplates (Corning Inc), respectively. Cells were treated with serial dilutions of tested compounds with the maximum working concentration of 10 μM. Cell survival was measured 5 days later using a CellTiter-Glo luminescent cell viability assay kit (Promega Corporation). Luminescence was recorded by FLUOstar Omega microplate reader (BMG Labtech). Half maximal inhibitory concentration (IC50) was determined with GraphPad Prism using baseline correction (by normalizing to dimethyl sulfoxide (DMSO) control)

SUM159PT = assay: Antiproliferation, CellTiter-Glo, 5 days, SUM159PT; conditions: AR+ TNBC
Experimental: as §2, with “Cells” for “For MDA-MB-453, MFM-223, SUM159PT, MDA-MB-468, and HCC1937, 4,000, 3,000, 1,000, 3,000, and 3,000 cells were plated per well in 96-well microplates (Corning Inc), respectively. Cells”

HCC1937 = assay: Antiproliferation, CellTiter-Glo, 5 days, HCC1937; conditions: HCC1937, AR− TNBC
Experimental: as §2

MDA-MB-453 = assay: Antiproliferation, CellTiter-Glo, 5 days, MDA-MB-453; conditions: MDA-MB-453, AR+ TNBC
Experimental: as §2

MDA-MB-468 = assay: Antiproliferation, CellTiter-Glo, 5 days, MDA-MB-468; conditions: MDA-MB-468, AR− TNBC
Experimental: as §2

MFM-223 = assay: Antiproliferation, CellTiter-Glo, 5 days, MFM-223; conditions: MFM-223, AR+ TNBC
Experimental: as §2

MDA-MB-453 cells [3] = assay: Combination with PI3K inhibitor Duvelisib, proliferation of MDA-MB-453 cells, Combination Index; conditions: molar ratio to Duvelisib 1:30-1:1.111, 7-10 days
Experimental: (§3) Triple negative breast cancer MDA-MB-453 cells in logarithmic growth stage were inoculated into a 96-well plate at a concentration of 4×10^3 cells/well, and then incubated in an incubator at 37° C., 5% CO2, and saturated humidity for 24 h. To the negative control wells, were added RPMI 1640 cell culture medium containing 10% fetal bovine serum in the same volume as the drug. After cultured for 24 h, to the 96-well plate, were sequentially added AR PROTACs compounds 279, 281, 282, ARV-110 and PI3K inhibitor Duvelisib, respectively.
as §1, with “adding” for “addition of”, “co-incubating” for “co-incubation”

MDA-MB-453 cells [4] = assay: Combination with PI3K inhibitor Idelalisib, proliferation of MDA-MB-453 cells, Combination Index; conditions: molar ratio to Idelalisib 1:270-1:3.333, 7-10 days
Experimental: as §3, with “ARV-110, ARV-766” for “ARV-110”, “Idelalisib,” for “Duvelisib,”
as §1, with “adding” for “addition of”, “co-incubating” for “co-incubation”

MDA-MB-453 cells [5] = assay: Combination with PI3K inhibitor Alpelisib, proliferation of MDA-MB-453 cells, Combination Index; conditions: molar ratio to Alpelisib 1:27-9:1, 7 days
Experimental: as §3, with “ARV-110, ARV-766” for “ARV-110”, “Alpelisib,” for “Duvelisib,”
as §1, with “7” for “7-10”

MDA-MB-453 cells [6] = assay: Combination with chemotherapeutic drug Paclitaxel, proliferation of MDA-MB-453 cells, Combination Index; conditions: molar ratio to Paclitaxel 20:1-5000:1, 7 days
Experimental: as §3, with “chemotherapeutic drug Paclitaxel,” for “PI3K inhibitor Duvelisib,”
as §1, with “adding” for “addition of”, “co-incubating” for “co-incubation”, “7” for “7-10”

Structure (SMILES): [2H]C([2H])([2H])NC(=O)c1ccc(N2C(=S)N(c3ccc(C#N)c(C(F)(F)F)c3)C(=O)C2(C)C)cc1F [HC-1119]
- inhibitory effect on the proliferation of MDA-MB-453 cells (MDA-MB-453 cells [1]): weak inhibitory effect
- anti-proliferation activity in all five cell lines [2]: failed to show anti-proliferation activity

Structure (SMILES): N#Cc1ccc(O[C@H]2CC[C@H](NC(=O)c3ccc(N4CC5CN(CC6CCN(c7cc8c(cc7F)C(=O)N(C7CCC(=O)NC7=O)C8=O)CC6)CC5C4)nn3)CC2)cc1Cl (stereo partly drawn) [Compound 259]
- IC50 (MDA-MB-453 cells [1]; Homo sapiens): > 2000 nM

Structure (SMILES): COc1cc(O[C@H]2C(C)(C)[C@H](N3Cc4nc(C#C[C@H]5CC[C@H](N6CCN(c7ccc8c(c7)C(=O)N(C7CCC(=O)NC7=O)C8=O)CC6)CC5)ccc4C3=O)C2(C)C)ccc1C#N (stereo partly drawn) [Compound 400]
- IC50 (MDA-MB-453 cells [1]; Homo sapiens): ≤ 2000 nM

Structure (SMILES): N#Cc1ccc(O[C@H]2CC[C@H](NC(=O)c3cnc(N4C[C@@H]5[C@@H](CN6CCN(c7ccc8c(c7)C(=O)N(C7CCC(=O)NC7=O)C8=O)CC6)[C@@H]5C4)cn3)CC2)cc1Cl (stereo partly drawn) [Compound 177]
- IC50 (MDA-MB-453 cells [1]; Homo sapiens): > 2000 nM

Structure (SMILES): N#Cc1ccc(O[C@H]2CC[C@H](NC(=O)c3ccc(N4CCC5(CCN(CC6CCN(c7cc8c(cc7F)C(=O)N(C7CCC(=O)NC7=O)C8=O)CC6)C5)C4)nn3)CC2)cc1Cl (stereo partly drawn) [Compound 162]
- IC50 (MDA-MB-453 cells [1]; Homo sapiens): > 2000 nM

Structure (SMILES): CC1(C)[C@H](Oc2ccc(C#N)c(Cl)c2)C(C)(C)[C@H]1N1Cc2nc(C#C[C@H]3CC[C@H](N4CCN(c5ccc6c(c5)C(=O)N(C5CCC(=O)NC5=O)C6=O)CC4)CC3)ccc2C1=O (stereo partly drawn) [Compound 325]
- IC50 (MDA-MB-453 cells [1]; Homo sapiens): > 2000 nM

Structure (SMILES): CC1(C)[C@H](Oc2ccc(C#N)c(Cl)c2)C(C)(C)[C@@H]1N1Cc2nc(C#C[C@H]3C[C@H](N4CCN(c5cc6c(cc5F)C(=O)N(C5CCC(=O)NC5=O)C6=O)CC4)C3)ccc2C1=O (stereo partly drawn) [Compound 357]
- IC50 (MDA-MB-453 cells [1]; Homo sapiens): ≤ 2000 nM

Structure (SMILES): N#Cc1ccc(O[C@H]2CC[C@H](NC(=O)c3ccc(N4CC5(CCN(CC6CCN(c7ccc8c(c7)C(=O)N(C7CCC(=O)NC7=O)C8=O)CC6)CC5)C4)nn3)CC2)cc1Cl (stereo partly drawn) [Compound 282]
- effect of the combination with Duvelisib on inhibiting proliferation (CI<1 = synergistic) (MDA-MB-453 cells [3]): synergistic effect
- effect of the combination with Idelalisib on inhibiting proliferation (CI<1 = synergistic) (MDA-MB-453 cells [4]): synergistic effect
- IC50 (MDA-MB-453 cells [1]; Homo sapiens): ≤ 2000 nM
- effect of the combination with Alpelisib on inhibiting proliferation (CI<1 = synergistic) (MDA-MB-453 cells [5]): synergistic effect
- effect of the combination with Paclitaxel on inhibiting proliferation (CI<1 = synergistic) (MDA-MB-453 cells [6]): synergistic effect

Structure (SMILES): N#Cc1ccc(O[C@H]2CC[C@H](NC(=O)c3ccc(N4CCC(CN5CCC6(CC5)CN(c5ccc7c(c5)C(=O)N(C5CCC(=O)NC5=O)C7=O)C6)CC4)nn3)CC2)cc1Cl (stereo partly drawn) [Compound 230]
- IC50 (MDA-MB-453 cells [1]; Homo sapiens): > 2000 nM

Structure (SMILES): N#Cc1ccc(O[C@H]2CC[C@H](NC(=O)c3ccc(N4CCC(N5CCC6(CC5)CN(c5ccc7c(c5)C(=O)N(C5CCC(=O)NC5=O)C7=O)C6)CC4)nn3)CC2)cc1Cl (stereo partly drawn) [Compound 281]
- effect of the combination with Duvelisib on inhibiting proliferation (CI<1 = synergistic) (MDA-MB-453 cells [3]): synergistic effect
- effect of the combination with Idelalisib on inhibiting proliferation (CI<1 = synergistic) (MDA-MB-453 cells [4]): synergistic effect
- IC50 (MDA-MB-453 cells [1]; Homo sapiens): ≤ 2000 nM
- effect of the combination with Alpelisib on inhibiting proliferation (CI<1 = synergistic) (MDA-MB-453 cells [5]): synergistic effect
- effect of the combination with Paclitaxel on inhibiting proliferation (CI<1 = synergistic) (MDA-MB-453 cells [6]): synergistic effect

Now from value to molecule, other results behind:

- IC50 (MDA-MB-453 cells [1]): > 2000 nM
- IC50 (HCC1937): > 10000 nM
- IC50 (MDA-MB-453): > 10000 nM
- IC50 (MDA-MB-468): > 10000 nM
Structure (SMILES): CNC(=O)c1ccc(N2C(=S)N(c3ccc(C#N)c(C(F)(F)F)c3)C(=O)C2(C)C)cc1F [HC-1119]
- IC50 (SUM159PT): > 10000 nM
- IC50 (MFM-223): > 10000 nM

- IC50 (MDA-MB-453 cells [1]; Homo sapiens): ≤ 2000 nM
- IC50 (HCC1937; Homo sapiens, 120 h): > 10000 nM
- IC50 (MDA-MB-453; Homo sapiens, 120 h): 1100 nM
- IC50 (MDA-MB-468; Homo sapiens, 120 h): > 10000 nM
Structure (SMILES): COc1cc(O[C@H]2C(C)(C)[C@H](NC(=O)c3ccc(N4CCC(CN5CCN(c6ccc(C(=O)N[C@H]7CCC(=O)NC7=O)c(F)c6)CC5)CC4)cc3)C2(C)C)ccc1C#N [ARV-766]
- effect of the combination with Idelalisib on inhibiting proliferation (CI<1 = synergistic) (MDA-MB-453 cells [4]): synergistic effect
- IC50 (SUM159PT; Homo sapiens, SUM-159-PT, 120 h): 380 nM
- effect of the combination with Alpelisib on inhibiting proliferation (CI<1 = synergistic) (MDA-MB-453 cells [5]): synergistic effect
- IC50 (MFM-223; Homo sapiens, 120 h): 5400 nM
